Measurements reported in US11524077B2, “Orally active, cell-penetrating homing peptide and methods using same” (Vascular BioSciences, priority 2012, dated 2022).
Bridge positions count the residues as written; N and C are the ends. Ends that are not written are not given here. Peptide text beside a SMILES is read from it.

Legend:
[1] = tested on: trypsin; experiment: trypsin digest time-course experiment with mass spectrometry analysis; assay type: in vitro ADME; conditions: trypsin in Krebbs buffer, 24° C., 0-120 minutes
Source text: In an effort to further understand the oral availability of cyclic CAR peptide, we tested the stability of cyclic CAR (cCAR) and linear CAR in the presence of trypsin, a serine protease that is one of the primary enzymes found in the digestive system of vertebrates. Trypsin selectively cleaves peptide chains at the carboxyl side of the basic residues lysine and arginine, yielding a potentially wide variety of peptide fragments.
We conducted a trypsin proteolysis time course experiment, and tested cCAR and linear CAR (cyclic CAR that lacks the disulfide bond between adjacent cysteine residues and has a linear structure) in the presence of a trypsin solution.
For the digest time course experiment, the cCAR peptide sample was prepared by dissolving cCAR in Krebbs buffer (670 μM CAR), and the trypsin digest solution was prepared by adding trypsin to Krebbs buffer as well (0.1 μg/μL Trypsin). 15 μL CAR (670 μM) was added to 40 μL trypsin solution (0.1 μg/μL) and 75 μL Krebbs buffer. The reaction was allowed to proceed at 24° C. for different time periods of time. The reactions were quenched with 20 μL formic acid (500 μM) at different time points to stop trypsin from degrading any further peptide substrate. These steps were performed repeatedly for multiple time points (t=0, 5, 10, 15, 20, 30, 60, 120 minutes) for both cCAR and linear CAR. The different time point samples were desalted and analyzed using mass spectrometry.

[2] = tested on: pulmonary hypertensive arteries; conditions: monocrotaline (MCT) and SU5416/Hypoxia/Normoxia severe occlusive rat models of PAH; cited from earlier work
[3] = co-administered with the Rho-kinase inhibitor fasudil; cited from earlier work
[4] = tested on: severe occlusive PAH rats (SU5416/Hx/Nx-exposed); experiment: hemodynamic effect of oral CAR 3 hours prior to i.v. imatinib in severe occlusive rat model of PAH; assay type: in vivo
Experimental: Anesthetized severe occlusive PAH rats were then catheterized in the right jugular vein for measurement of right ventricular systolic pressure (RVSP), the right carotid artery and advanced into the aorta for the measurement of systemic pressure (SAP) and the left jugular vein for drug administration.
Values are means±SE. N=3 without CAR and N=5 with CAR *p<0.05 vs. without CAR.
Recently we sought to explore the hemodynamic effect of orally administering 20 mg/kg of CAR 3 hours prior to i.v. administration of imatinib at doses of 5 mg/kg and 20 mg/kg in a severe occlusive rat model of PAH. Rats were first orally syringe fed a mixture of 20 mg/Kg CAR in a 10% sucrose solution 3 hours prior to anesthetization and assessment of the hemodynamic effects of i.v. administration of 5 mg/kg imatinib followed 20 minutes later by i.v. administration of 20 mg/kg of imatinib (FIG. 1).

[5] = tested on: SU/Hx/Nx rats with severe occlusive model PAH; experiment: sublingual CAR +/- imatinib or sildenafil in rats with severe occlusive model PAH; assay type: in vivo, rat; conditions: CAR 3 mg/kg sublingual; i.v. bolus imatinib or sildenafil; RVSP and SAP
Experimental: (A) a pulmonary artery with medial thickening, (B) a small pulmonary artery with neointimal occlusion, (C) spleen, (D) liver, and (E) kidney from a SU/Hx/Nx rat. […] Effects of CAR (3 mg/kg, sublingual) on intravenous (bolus) imatinib (F)- and sildenafil (G)- induced reductions in right ventricular systolic pressure (RVSP) and systemic arterial pressure (SAP) in SU/Hx/Nx rats. Values are means±SE. N=4-6. *p<0.05 with (solid line) vs. without (dashed line) CAR.
CAR was administered sublingually at a dosing of 3 mg/kg. The administration was performed in six rats with severe occlusive model PAH via dropper sublingually. The administration was +/− imatinib or +/− sildenafil.

[6] = imatinib i.v. 20 mg/kg, 3 hours after oral CAR 20 mg/kg, severe occlusive PAH rats

resistance to trypsin digestion relative to cCAR [1] | resistance to trypsin digestion relative to linear CAR [1] | Molecule | outcome of trypsin digest (stability in words) [1] | homing to pulmonary hypertensive arteries [2] | vasodilation when co-administered with fasudil [3] | adjuvant activity after oral administration ([4]; 3 hours after oral CAR 20 mg/kg in 10% sucrose, i.v. imatinib) | change in systemic arterial pressure (SAP) [4, 6] | reduction in right ventricular systolic pressure (RVSP) [4, 6] [%] | effect on action of co-administered drugs [5]
approximately 10 fold | approximately 100 fold | C[C@H](NC(=O)[C@@H]1CSSC[C@H](NC(=O)[C@H](CC(=O)O)NC(=O)[C@H](CCCCN)NC(=O)[C@H](CC(N)=O)NC(=O)[C@H](CCCCN)NC(=O)[C@@H](N)CO)C(=O)N1)C(=O)N[C@@H](CCCNC(=N)N)C(=O)O [SEQ ID NO: 5, SKNKDCCAR] (H-SKNKDCCAR-OH; disulfide 6-7; N-terminus and C-terminus assumed) | largely resistant to further degradation by trypsin | – | – | – | – | – | –
– | – | C[C@H](NC(=O)[C@@H](N)CS)C(=O)N[C@@H](CCCNC(=N)N)C(=O)N[C@@H](CO)C(=O)N[C@@H](CCCCN)C(=O)N[C@@H](CC(N)=O)C(=O)N[C@@H](CCCCN)C(=O)N[C@@H](CC(=O)O)C(=O)N[C@@H](CS)C(=O)O [linear CAR] (H-CARSKNKDC-OH; N-terminus and C-terminus assumed) | quickly digested by trypsin into its constituent amino acids | – | – | – | – | – | –
– | – | CARSKNKDC (disulfide 1-9 (inferred)) [cell-penetrating homing peptide] | yielded one predominant product that persisted over the time course of the experiment | shown to home to pulmonary hypertensive arteries | acute pulmonary selective vasodilation | displayed pulmonary selective adjuvant activity | no change | 18 | can facilitate the selective action of co-administered drugs at the site of the disease
